“Also recorded” adds a separate entry of the source.
Experiments:
[1] = tested on: 3D reconstructed epidermis model (Epiderm tissue, Epi-200); assay: Skin irritation test (OECD TG 439, EPI-200-SIT), MTT viability; type: cell-based, human; details: for reduction in cell viability in the skin tissue: 1 h exposure, MTT, relative to PBS, SDS 5%, HA-CBT 20 and 2 mg/mL, gly-CBT 1 and 0.1 mg/mL
Experimental: To evaluate the biocompatibility of CBT functionalized molecules, a skin irritation study was conducted using a 3D reconstructed epidermis model supplied by Mattek. The skin irritation test was conducted following the OECD TG 439 protocol as a basis. Upon receiving the Epiderm™ tissue (Epi-200) from Mattek, the tissue inserts were removed from agarose and incubated in 0.9 mL of media in 6 well plates for 1 h at 37° C. The tissue inserts were then transferred to new wells containing 0.9 mL of fresh media, and incubated overnight for 18 h at 37° C. 30 μL of PBS, HA-CBT (20 mg/mL and 2 mg/mL in PBS), gly-CBT (1 mg/mL and 0.1 mg/mL), and SDS (5 wt %) was applied and spread on the top of 3 independent tissue inserts each. After incubation at 37° C. for 1 h, the formulations were pipetted out and the tissue inserts were washed three times with PBS. The tissue inserts were then incubated in fresh media for 24 h at 37° C. The media was then exchanged with fresh media, and the inserts were incubated for an additional 18 h at 37° C. Following incubation, the viability of the tissue was assessed using the MTT assay, discussed in detail in a protocol established by Mattek (EPI-200-SIT).

[2] = Skin penetration on porcine skin, fluorescence microscopy of cryosections; type: in vitro ADME
Experimental: Frozen, porcine skin was allowed to equilibrate to room temperature, and then cut into ~2×2 cm squares and placed into 0.9 mL of PBS in a 6 well plate. 25 μL of HA-CBT (10 mg/mL in PBS), gly-CBT (1 mg/mL in PBS), and PBS were gently spread on porcine skin to a 1 cm circle with a metal spatula. After spreading the formulations, the 6 well plate was placed into a humidified incubator at 37° C. for 18 h.
A small region in the center of the application area was then excised using a surgical scalpel, and placed into OCT in a biopsy mold. The tissue was snap frozen by placing the biopsy mold directly into a methylpentane, dry ice slurry. The tissue was then sectioned on a cryostat microtome to 20 μm sections. A drop of ProLong Gold was placed on each section and covered with a coverslip prior to imaging. Images were taken on a ZeissAxioPlan2 using a 10× objective and a DAPI filter to visualize the location of CBT.

[3] = Distribution of chemical species in EpiDerm tissue by HPLC with sequential extractions; type: in vitro ADME, human
Experimental: To further study the penetration of gly-CBT within human skin tissue, HPLC was used to quantify the distribution of different chemical species after application of gly-CBT and gly-aminoLuciferin (gly-Luc) into EpiDerm™ tissue. As described above, 100 μL of gly-CBT and gly-Luc was applied on the top of the skin tissue. Following 6 h incubation, the donor and acceptor solutions were collected and the chemical species which penetrated the skin were attempted to be extracted with 1:1 MeOH:PBS. Following the first extraction protocol, the tissue inserts were rinsed with PBS and imaged in a dark room by exposing with a UV254 lamp. Following the imaging, further extractions were carried out sequentially with 1.0% Triton X-100, acidified MeOH (0.1% TFA), and DCM. Neither of the later extractions were successful in extracting out any additional CBT species.

[4] = Penetration of gly-CBT in 3D human skin model (EpiDerm), absorbance at 326 nm and microscopy; type: in vitro ADME
Experimental: The penetration and interactions of gly-CBT in human skin was assessed using a 3D human skin model (Mattek EpiDerm™). After allowing the skin tissues to equilibrate with media for 1 h at 37° C. in 6 well plates, the media was replaced with PBS and 100 μL of PBS and gly-CBT (1 mg/mL) were applied on top of 4 skin tissues each. Following 6 h incubation, a single tissue from each group was flash frozen in OCT for cryosectioning and microscopy. For the remaining samples, the liquid which remained on top of the tissue inserts (~100 μL) and the liquid in the acceptor solution (900 μL) was collected. The top of the tissue inserts were then washed 2× with PBS and then the inserts were submerged into 2 mL of a 1:1 PBS:MeOH solution to extract molecules which penetrated the skin. After performing the extraction for 2 h at 37° C., the concentration of gly-CBT was measured in the donor, acceptor, and extract solutions by reading the absorbance at 326 nm with a plate reader. The remaining tissue insert was cryosectioned and imaged using fluorescent microscopy as described in Example 1.

SMILES | reduction in cell viability in the skin tissue [1] | extraction of gly-CBT from porcine skin [2] | fluorescence signal in the dermis ([2]; 18 h at 37 °C, DAPI filter) | fluorescence within the stratum corneum and epidermis ([2]; 18 h at 37 °C, DAPI filter, HA-CBT 10 mg/mL, gly-CBT 1 mg/mL in PBS) | fluorescence of tissue insert under UV lamp ([3]; after first extraction process and washing step) | extractability from the tissue with Triton X-100, acidified methanol and dichloromethane ([3]; sequential extractions after 1:1 MeOH:PBS) | applied gly-CBT extracted from within the Epiderm tissue ([4]; 1:1 PBS:MeOH extraction 2 h at 37 °C) | total gly-CBT detected after extraction and in donor and acceptor solutions ([4]; 6 h incubation, 1:1 PBS:MeOH extraction) | fraction of the penetrated amount that appeared in the acceptor compartment ([4]; EpiDerm, 6 hours) | fraction of the penetrated amount that remained in the skin ([4]; EpiDerm, 6 hours) | applied dose that penetrated the skin ([4]; EpiDerm, within 6 hours) | fluorescent signal within the tissue by microscopy ([4]; after 6 h application, cryosection) | applied gly-CBT remaining on the surface of the epiderm tissue ([4]; after 6 h incubation, 1 mg/mL, absorbance 326 nm) | irritation classification ([1]; EPI-200-SIT, relative viability greater than 50% = non-irritant)
CCCCCCCCCCCCOS(=O)(=O)[O-].[Na+] [SDS, reference compound] | ~100% | – | – | – | – | – | – | – | – | – | – | – | – | –
N#Cc1nc2ccc(NC(=O)CN)cc2s1 [gly-CBT] | neither gly-CBT nor HA-CBT showed any reduction | inability to extract | lower signal | High fluorescence | extremely fluorescent | unable to be extracted; also recorded: could not be removed | ~ 10% | ~ 50% | about ⅓ | ⅔ | about 75% | significant fluorescent signal | ~ 25% | non-irritants

— patent US12721861B2, “Delivery and retention of active agents within the skin” (Fount Bio, Inc., priority 2019, dated 2026)
